# Columns and labels:
# [1] = biological target: human E3 ligase component cereblon (CRBN) (Homo sapiens (Human), UniProt Q96SW2); assay: Cereblon (CRBN) target engagement, NanoBRET TE Intracellular E3 Ligase Assay in transfected HEK-293T cells; details: read-out: CRBN Binding EC50
# Protocol: HEK293T cells were harvested ca. 75% confluent with trypsin and plated (500,000 cells/well) in a 6-well tissue culture plate in 2 mL of Dulbecco's Modified Eagle Medium (DMEM)+10% Fetal Bovine Serum (FBS) and incubated overnight at 37° C.
# The NanoLuc-CRBN fusion vector (Nluc-CRBN; Promega) contains the coding region of human E3 ligase component cereblon (CRBN) fused to the C-terminus of the NanoLuc luciferase coding region. A mixture of 10 ng Nluc-CRBN and 990 ng DDB1 Expression Vector (Promega) was added to 125 μL Opti-Minimum Essential Medium (Opti-MEM™; Thermo Fisher) along with 2 μL P3000 reagent (Thermo Fisher) in a 1.5 mL epppendorf tube. This solution was added to Lipofectamine 3000 transfection reagent (5 μL; Thermo Fisher) in Opti-MEM (125 μL), mixed well, and incubated for 15 minutes at room temperature. The transfection mixture was added dropwise to cells and incubated overnight at 37° ° C., 5% CO2. Following transfection, cells were washed once with PBS, and trypsin (250 μL) was added and incubated 30-45 sec to dislodge cells. Complete media (2 mL) was added to resuspend cells to form a single cell suspension. Cells were centrifuged at 320×g for 5 min at room temperature, the supernatant was removed, and the cell pellet resuspended in Opti-MEM (3 mL; wash step repeated×2). After final resuspension in 5 mL Opti-MEM, cells were counted and resuspended at 200,000 cells/mL in Opti-MEM.
# Cereblon target engagement was monitored by Bioluminescence Resonance Energy Transfer (BRET) in transfected HEK-293T cells using the NanoBRET TE Intracellular E3 Ligase Assay (Promega). Briefly, 384-well plates (white opaque plates, Corning 3574, low binding surface) were seeded with transfected HEK-293T cells (38 μL/well). 2 μL of 10 μM CRBN tracer (diluted 1:5 in Tracer Dilution Buffer) was added to each well. Plates were centrifuged at 320×g for 1 min at room temperature. Test compounds were added in a 11-point dilution series (typically 10 μM to […]) using a TECAN D300e Digital Dispenser. Plates were shaken for 2 minutes on a microplate shaker to mix compounds. Plates were centrifuged at 320×g for 1 min at room temperature, and subsequently incubated for 2 hours at 37° C.
# After incubation, plates were allowed to cool to room temperature for 15 minutes. 20 μL of 3× Complete NanoBRET™ Nano-Glo® Substrate plus Inhibitor Solution (Promega, 1:166 Substrate and 1:500 dilution of Extracellular NanoLuc® Inhibitor diluted in Opti-MEM) were added to each well. Plates were incubated with shaking at room temperature for 3 minutes covered with foil. Plates were read on a CLARIOstar microplate reader (BMG LabTech), measuring at 450 nm (donor emission) and 610 nm (acceptor emission). The IC50 values were determined by regression to best fit four-parameter logistic curves using GraphPad Prism.
# IKZF2 (Helios) = assay: IKZF2 reporter degradation assay (HEK 293T IKZF2-mNeonGreen reporter cell line); type: cell-based, human; details: 1 μM compound, 24 hour incubation, HEK 293T IKZF2-mNeonGreen reporter
# Text: Polycistronic plasmids were constructed for the mammalian expression of fluorescent reporter fusions of human transcription factors IKZF1 (Ikaros), IKZF2 (Helios), and IKZF3 (Aiolos). The respective protein sequences had their C-terminal end joined to a GGGGS linker repeated three times followed by mNeonGreen, P2A sequence, and mScarlet. The DNA sequences of the open reading frames are as follows:
# IKZF1, IKZF2, and IKZF3 constructs were cloned into the UCOE Hygromycin expression vectors (Millipore Sigma). Reporter constructs were transfected using cationic lipid reagents into adherent HEK 293T cells and stable integrants were selected by treatment with 200 μg/mL hygromycin B. Clonal populations were obtained from the population of stable integrants either by limiting dilution or fluorescence activated cell sorting.
# The clonal stable cell lines were maintained under constant 200 μg/mL hygromycin B selection while being passaged for use in the degradation assays. […] The fluorescence intensity of the IKZF1/2/3-mNeonGreen (FITC channel) and mScarlet (PE channel) reporters were routinely analyzed by flow cytometry to confirm consistent expression levels between experiments.
# The IKZF1/IKZF2/IKZF3 degradation assays were carried out by harvesting the HEK 293T reporter cell lines and resuspending the cells in media formulated for reduced background fluorescence (FluoroBrite; Thermo Fisher). The respective cell lines were seeded at a density of 4000 cells/well into black-walled 384-well optical grade assay tissue culture plates. The cells were incubated overnight at 37° C. to allow for attachment to the assay plate. Dilutions of the compounds were prepared in DMSO from 10 mM compound stocks. The assay plates were treated with appropriate concentrations of the compounds by dispensing the DMSO dilutions in quadruplicate wells with an upper limit of 0.5% final DMSO.
# After 24 hour incubation with the compounds, the assay plates were imaged on an ImageXpress Pico microscopy system (cells maintained at 37° C. during imaging) to obtain the fluorescent readouts. The assay plates were imaged in the FITC and Tetramethylrhodamine (TRITC) channels to obtain the mNeonGreen fluorescence intensity (reporter degradation data) and mScarlet fluorescence intensity (for cell segmentation). 293T-IKZF1 and 293T-IKZF3 reporter cell lines were imaged with exposures of 500 milliseconds (ms) for both FITC and TRITC channels, while the 293T-IKZF2 reporter cell line was imaged with exposures of 1000 ms for FITC and 1250 ms for TRITC. The resulting data was analyzed with Cell Reporter Xpress software using the 2-channel cell scoring analysis with a “percent positive” readout. The TRITC channel was selected for the “nuclei” segmentation with a threshold of 20 while the FITC channel was selected for the “Marker 1” segmentation and a threshold of 100 for the IKZF1 and IKZF3 reporter lines. […] The minimum segmentation width was set to 6 micrometers and the maximum segmentation width was set to 15 micrometers for all cell lines. The DCs calculations were determined by regression to best fit four-parameter logistic curves using GraphPad Prism.
# Chain of human E3 ligase component cereblon (CRBN) (Q96SW2 whole entry): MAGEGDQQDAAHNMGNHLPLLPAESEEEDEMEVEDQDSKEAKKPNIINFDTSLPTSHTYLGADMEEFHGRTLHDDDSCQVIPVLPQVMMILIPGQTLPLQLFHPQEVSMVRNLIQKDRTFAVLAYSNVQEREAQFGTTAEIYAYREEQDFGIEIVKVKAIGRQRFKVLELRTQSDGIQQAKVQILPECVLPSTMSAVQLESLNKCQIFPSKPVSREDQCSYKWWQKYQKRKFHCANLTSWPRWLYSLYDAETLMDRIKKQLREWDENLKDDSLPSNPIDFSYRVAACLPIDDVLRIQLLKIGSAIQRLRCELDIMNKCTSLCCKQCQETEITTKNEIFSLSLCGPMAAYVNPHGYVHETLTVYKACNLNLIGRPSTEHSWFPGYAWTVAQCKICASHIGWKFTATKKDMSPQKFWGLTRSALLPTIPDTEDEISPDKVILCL
# Chain of human E3 ligase component cereblon (CRBN) (Q16531 whole entry partner): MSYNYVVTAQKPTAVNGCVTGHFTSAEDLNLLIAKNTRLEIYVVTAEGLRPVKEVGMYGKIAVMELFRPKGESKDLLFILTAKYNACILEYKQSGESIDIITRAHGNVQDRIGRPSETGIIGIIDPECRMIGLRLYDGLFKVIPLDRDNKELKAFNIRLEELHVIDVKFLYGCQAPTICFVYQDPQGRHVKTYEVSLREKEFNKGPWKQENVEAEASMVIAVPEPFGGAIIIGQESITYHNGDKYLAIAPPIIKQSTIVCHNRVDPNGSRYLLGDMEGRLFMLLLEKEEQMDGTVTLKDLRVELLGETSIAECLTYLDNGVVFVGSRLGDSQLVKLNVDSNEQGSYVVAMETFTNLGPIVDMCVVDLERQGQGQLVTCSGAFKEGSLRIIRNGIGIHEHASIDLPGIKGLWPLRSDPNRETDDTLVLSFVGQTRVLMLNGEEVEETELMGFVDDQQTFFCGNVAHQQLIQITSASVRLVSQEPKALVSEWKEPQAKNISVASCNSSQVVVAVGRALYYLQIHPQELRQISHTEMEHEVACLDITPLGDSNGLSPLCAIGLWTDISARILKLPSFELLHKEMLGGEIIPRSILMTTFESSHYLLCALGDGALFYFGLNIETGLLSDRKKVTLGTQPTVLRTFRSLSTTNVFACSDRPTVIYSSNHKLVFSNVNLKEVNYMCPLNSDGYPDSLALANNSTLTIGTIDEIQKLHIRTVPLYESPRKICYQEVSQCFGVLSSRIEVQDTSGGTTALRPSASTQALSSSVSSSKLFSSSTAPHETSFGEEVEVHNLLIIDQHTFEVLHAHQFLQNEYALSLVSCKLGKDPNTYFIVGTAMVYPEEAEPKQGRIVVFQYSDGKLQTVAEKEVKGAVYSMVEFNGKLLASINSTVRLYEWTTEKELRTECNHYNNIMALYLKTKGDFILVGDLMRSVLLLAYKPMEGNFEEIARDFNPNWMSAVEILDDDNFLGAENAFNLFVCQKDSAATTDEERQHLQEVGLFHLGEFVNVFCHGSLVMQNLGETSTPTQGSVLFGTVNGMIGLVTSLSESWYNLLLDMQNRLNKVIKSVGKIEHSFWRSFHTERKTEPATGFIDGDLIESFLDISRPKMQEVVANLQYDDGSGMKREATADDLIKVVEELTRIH
Structure (SMILES),EC50 [1] [nM],IKZF2 % Degradation @ 1 μM (IKZF2 (Helios)) [%]
"O=C1CCC(N2Cc3cc(O[C@H]4CCCC[C@@H]4N4CC(c5ccc(OC(F)(F)F)cc5)C4)ccc3C2=O)C(=O)N1 (mixture of isomers) [Compound 60, Rac-3-(1-oxo-5-(((trans)-2-(3-(4-(trifluoromethoxy)phenyl)azetidin-1-yl)cyclohexyl)oxy)isoindolin-2-yl)piperidine-2,6-dione]",15,84.9
"O=C1CCC(N2Cc3cc(O[C@@H]4CCCC[C@@H]4N4CC(c5ccc(OC(F)(F)F)cc5)C4)ccc3C2=O)C(=O)N1 (mixture of isomers) [Compound 61, Rac-3-(1-oxo-5-(((cis)-2-(3-(4-(trifluoromethoxy)phenyl)azetidin-1-yl)cyclohexyl)oxy)isoindolin-2-yl)piperidine-2,6-dione]",14,36.3
"O=C1CCC(N2Cc3cc(O[C@H]4CCCC[C@@H]4N4CC(c5cccc(C(F)(F)F)c5)C4)ccc3C2=O)C(=O)N1 (mixture of isomers) [Compound 62, Rac-3-(1-oxo-5-(((trans)-2-(3-(3-(trifluoromethyl)phenyl)azetidin-1-yl)cyclohexyl)oxy)isoindolin-2-yl)piperidine-2,6-dione]",46,87.5
"O=C1CCC(N2Cc3cc(O[C@H]4CCCC[C@H]4N4CC(c5cccc(C(F)(F)F)c5)C4)ccc3C2=O)C(=O)N1 (mixture of isomers) [Compound 63, Rac-3-(1-oxo-5-(((cis)-2-(3-(3-(trifluoromethyl)phenyl)azetidin-1-yl)cyclohexyl)oxy)isoindolin-2-yl)piperidine-2,6-dione]",15,44.9
"N#Cc1cc(F)ccc1C1CN([C@@H]2CCC[C@H]2Oc2ccc3c(c2)CN(C24CC(C2)C(=O)NC4=O)C3=O)C1 (racemic) [Compound 71, Rac-2-(1-((trans)-2-((2-(2,4-dioxo-3-azabicyclo[3.1.1]heptan-1-yl)-1-oxoisoindolin-5-yl)oxy)cyclopentyl)azetidin-3-yl)-5-fluorobenzonitrile]",37,<15
"N#Cc1ccc(C2CN([C@H]3CCCC[C@@H]3Oc3ccc4c(c3)CN(C3CCC(=O)NC3=O)C4=O)C2)c(Cl)c1 (mixture of isomers) [Compound 74, Rac-3-chloro-4-(1-((trans)-2-((2-(2,6-dioxopiperidin-3-yl)-1-oxoisoindolin-5-yl)oxy)cyclohexyl)azetidin-3-yl)benzonitrile]",20,63
"N#Cc1ccc(C2CN([C@@H]3CCCC[C@@H]3Oc3ccc4c(c3)CN(C3CCC(=O)NC3=O)C4=O)C2)c(Cl)c1 (mixture of isomers) [Compound 75, Rac-3-chloro-4-(1-((cis)-2-((2-(2,6-dioxopiperidin-3-yl)-1-oxoisoindolin-5-yl)oxy)cyclohexyl)azetidin-3-yl)benzonitrile]",12,36.8
"N#Cc1cccc(C2CN([C@H]3CCCC[C@H]3Oc3ccc4c(c3)CN(C3CCC(=O)NC3=O)C4=O)C2)c1 (mixture of isomers) [Compound 76, Rac-3-(1-((cis)-2-((2-(2,6-dioxopiperidin-3-yl)-1-oxoisoindolin-5-yl)oxy)cyclohexyl)azetidin-3-yl)benzonitrile]",22,73.7
"N#Cc1cc(Cl)ccc1C1CN([C@H]2CCC[C@@H]2Oc2ccc3c(c2)CN(C2CCC(=O)NC2=O)C3=O)C1 (mixture of isomers) [Compound 83, Rac-5-chloro-2-(1-((trans)-2-((2-(2,6-dioxopiperidin-3-yl)-1-oxoisoindolin-5-yl)oxy)cyclopentyl)azetidin-3-yl)benzonitrile]",36,48.8
"N#Cc1cc(Cl)ccc1C1CN([C@H]2CCC[C@H]2Oc2ccc3c(c2)CN(C2CCC(=O)NC2=O)C3=O)C1 (mixture of isomers) [Compound 84, Rac-5-chloro-2-(1-((cis)-2-((2-(2,6-dioxopiperidin-3-yl)-1-oxoisoindolin-5-yl)oxy)cyclopentyl)azetidin-3-yl)benzonitrile]",14,<15
"O=C1CCC(N2Cc3cc(O[C@@H]4CCCC[C@@H]4N4CC(O)(c5ccccc5)C4)ccc3C2=O)C(=O)N1 (mixture of isomers) [Compound 97, Rac-3-(5-(((cis)-2-(3-hydroxy-3-phenylazetidin-1-yl)cyclohexyl)oxy)-1-oxoisoindolin-2-yl)piperidine-2,6-dione]",31,<15
"N#Cc1cc(Cl)ccc1C1CN([C@H]2CCCC[C@@H]2Oc2ccc3c(c2)CN(C2CCC(=O)NC2=O)C3=O)C1 (mixture of isomers) [Compound 99, Rac-5-chloro-2-(1-((trans)-2-((2-(2,6-dioxopiperidin-3-yl)-1-oxoisoindolin-5-yl)oxy)cyclohexyl)azetidin-3-yl)benzonitrile]",44,80.2
"N#Cc1cc(F)ccc1C1CN([C@H]2CCCC[C@@H]2Oc2ccc3c(c2)CN(C2CCC(=O)NC2=O)C3=O)C1 (mixture of isomers) [Compound 101, Rac-2-(1-((trans)-2-((2-(2,6-dioxopiperidin-3-yl)-1-oxoisoindolin-5-yl)oxy)cyclohexyl)azetidin-3-yl)-5-fluorobenzonitrile]",33,79.2
"N#Cc1ccccc1C1CN([C@H]2CCCC[C@@H]2Oc2ccc3c(c2)CN(C2CCC(=O)NC2=O)C3=O)C1 (mixture of isomers) [Compound 108, Rac-2-(1-((trans)-2-((2-(2,6-dioxopiperidin-3-yl)-1-oxoisoindolin-5-yl)oxy)cyclohexyl)azetidin-3-yl)benzonitrile]",58,71.3
"N#Cc1ccccc1C1CN([C@H]2CCCC[C@H]2Oc2ccc3c(c2)CN(C2CCC(=O)NC2=O)C3=O)C1 (mixture of isomers) [Compound 109, Rac-2-(1-((cis)-2-((2-(2,6-dioxopiperidin-3-yl)-1-oxoisoindolin-5-yl)oxy)cyclohexyl)azetidin-3-yl)benzonitrile]",37,<15
"N#Cc1ccc(C2CN([C@@H]3CCCC[C@@H]3Oc3ccc4c(c3)CN(C3CCC(=O)NC3=O)C4=O)C2)c(F)c1 (mixture of isomers) [Compound 115, Rac-4-(1-((cis)-2-((2-(2,6-dioxopiperidin-3-yl)-1-oxoisoindolin-5-yl)oxy)cyclohexyl)azetidin-3-yl)-3-fluorobenzonitrile]",12,63.6

# Source: patent publication US20240246935A1 (Plexium, Inc., priority 2021, published 2024)
